“Also recorded” adds a separate entry of the source. Where two headings read alike, the source gives them in different places. Marks after values point to notes of the source that are not given here.
What was measured:
[1] = molecular target: T1, Human 11β-HSD2 (Homo sapiens, UniProt P80365); assay: 11β-HSD2 assay in human kidney microsomes; type: biochemical; details: human kidney microsomes
T1 construct: tissue Gentest (Woburn, MA); host or cells: human kidney microsomes
T1 sequence (P80365 1-405): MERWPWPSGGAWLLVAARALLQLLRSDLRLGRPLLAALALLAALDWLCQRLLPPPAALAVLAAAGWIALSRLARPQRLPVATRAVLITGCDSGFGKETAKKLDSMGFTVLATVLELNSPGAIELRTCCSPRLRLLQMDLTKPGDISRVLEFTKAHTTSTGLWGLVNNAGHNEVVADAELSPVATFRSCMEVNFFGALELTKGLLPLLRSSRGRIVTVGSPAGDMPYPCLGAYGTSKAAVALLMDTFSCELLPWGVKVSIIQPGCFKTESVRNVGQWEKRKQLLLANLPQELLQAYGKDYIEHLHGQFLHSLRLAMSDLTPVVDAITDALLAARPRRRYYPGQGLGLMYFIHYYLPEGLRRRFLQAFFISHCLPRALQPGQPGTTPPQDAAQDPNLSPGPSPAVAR
Experimental: The rat and human kidney microsomes were used for 11β-HSD2 sources. 11β-HSD2 activity was performed in the microsome according to a previously described method. In brief, the assay tubes contained 25 nM substrate CORT (for rat) or cortisol (for human), spiked with 30,000 cpm their respective ^3H-11β-hydroxyl steroid, 0.2 mM NAD+ and 0.1 mM DTT in the PBS buffer. 8 (rat) or 20 (human) µg kidney microsomes were added to each tube to initiate the reaction and the reaction mixture was incubated for up to 3 hrs, during which the reaction is within the linear range. The rest procedure was similar to 11β-HSD1 assay. The percentage conversion of CORT to 11DHC or cortisol to cortisone was calculated by dividing the radioactive counts identified as 11keto-steroids by the total counts.
(§1) The IC50 was determined by adding different concentrations of each compound in the 11β-HSD1 or 11β-HSD2 reaction as described. The mode of inhibition was assayed by adding various concentrations of steroid substrates in the presence of an inhibitor as described.

[2] = molecular target: T2, Human 11β-HSD1 (Homo sapiens, UniProt P28845); assay: 11β-HSD1 assay in microsomes from CHOP cells transfected with human HSD11B1; type: biochemical
T2 construct: expressed in transfected cells; host or cells: CHOP cells (transient, FuGENE)
Experimental: An expression plasmid was constructed to express human 11β-HSD1 (HSD11B1) cDNA in pcDNA I expression vector from its original human HSD11B1 vector (pBluescriptSK+).[15]. The Escherichia coli transformants carrying an insert were selected by colony hybridization, and a clone with the insert in the correct orientation relative to the vector T7 promoter was identified by restriction mapping. All transfections were carried out on 80% confluent cultures in 12-well plates. Aliquots of 1 µg HSD11B1 pcDNA I were transfected into mammalian CHOP cells with the FuGENE Transfection Reagent (Roche) according to manufacturer's protocol. Cells were allowed to grow for 24 hours in media containing 10% fetal bovine serum. Then media were removed and cells were harvested for 11β-HSD1 activity assay.
The rat testis and liver or human liver microsomes were used for 11β-HSD1 assay. 11β-HSD1 activity was performed in the microsome according to a previously described method. […] 2 µg microsomes were added to each tube to initiate the reaction and the reaction mixture was incubated for up to 2 hrs, during which the reaction is within the linear range. The rest procedure was similar to 11β-HSD1 assay in intact cells.
as §1

[3] = molecular target: T3, rat liver microsomal 11β-HSD1 (Rattus norvegicus, UniProt P16232); assay: Mode of inhibition (Lineweaver-Burk), rat liver microsomal 11β-HSD1; type: biochemical; details: Lineweaver-Burk plot, substrate 11DHC
T3 construct: Rat liver, testis and kidney microsomes were prepared as described previously; from tissue; host or cells: rat liver microsomes
Experimental: The rat testis and liver or human liver microsomes were used for 11β-HSD1 assay. 11β-HSD1 activity was performed in the microsome according to a previously described method. In brief, the assay tubes contained 25 nM substrate 11DHC (for rat) or cortisone (for human), spiked with 30,000 cpm their respective ^3H-11keto-steroid, 0.2 mM NADPH and 5 mM glucose-6-phosphaare in the PBS buffer. 2 µg microsomes were added to each tube to initiate the reaction and the reaction mixture was incubated for up to 2 hrs, during which the reaction is within the linear range. The rest procedure was similar to 11β-HSD1 assay in intact cells.
as §1
Enzyme data were subjected to nonlinear analysis by GraphPad (Version 5, GraphPad Software Inc., San Diego, CA) for IC50. Lineweaver-Burk plot was used for the mode of inhibition. Data were subjected to analysis by one-way ANOVA followed by Tukey's multiple comparisons testing to identify significant differences between groups when three were calculated. Differences were regarded as significant at P<0.05.

[4] = system: Sprague-Dawley rats with high-fat-diet-induced metabolic syndrome; assay: High-fat-diet-induced metabolic syndrome treatment in rats; type: in vivo, rat; details: for Effect on serum LDL / Effect on serum glucose / Effect on serum total cholesterol / Effect on serum triglyceride (Tg): 200 mg/kg
Experimental: By the end of curcumin treatment, rats were euthanized. The body, liver, kidney and testis weights were recorded. Sera were collected after placing the bloods at room temperature for 25 min and centrifuged at 1500 g/min for 20 minutes. Sera were used for measurement of serum glucose, and lipid analysis. Serum glucose, total cholesterol, low density […], apolipoprotein A1 is (APOA1) and apolipoprotein B (APOB) were measured using a Hitachi 7600 biochemical analyzer (Hitachi, Japan) according to standard clinical protocol.

[5] = human, oral doses up to 8 g; cited from earlier work
[6] = HFD rats, 200 mg/kg curcumin, 2 months, vs HFD
[7] = HFD rats, 200 mg/kg curcumin, 2 months, vs HFD, listed as Curcumin
[8] = HFD rats, 200 mg/kg curcumin, 2 months, vs HFD, listed as curcumin
[9] = HFD rats, 200 mg/kg/day gavage, 2 months, Mean ± SEM, n = 10

T3 sequence (P16232 whole entry): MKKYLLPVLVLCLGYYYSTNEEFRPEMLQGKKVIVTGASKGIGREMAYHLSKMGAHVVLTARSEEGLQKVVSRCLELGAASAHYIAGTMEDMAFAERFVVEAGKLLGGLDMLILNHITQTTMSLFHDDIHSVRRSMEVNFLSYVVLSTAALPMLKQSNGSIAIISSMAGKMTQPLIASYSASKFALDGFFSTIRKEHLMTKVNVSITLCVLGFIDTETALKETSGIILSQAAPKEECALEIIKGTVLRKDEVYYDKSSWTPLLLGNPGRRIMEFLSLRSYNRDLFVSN
T2 sequence (P28845 whole entry): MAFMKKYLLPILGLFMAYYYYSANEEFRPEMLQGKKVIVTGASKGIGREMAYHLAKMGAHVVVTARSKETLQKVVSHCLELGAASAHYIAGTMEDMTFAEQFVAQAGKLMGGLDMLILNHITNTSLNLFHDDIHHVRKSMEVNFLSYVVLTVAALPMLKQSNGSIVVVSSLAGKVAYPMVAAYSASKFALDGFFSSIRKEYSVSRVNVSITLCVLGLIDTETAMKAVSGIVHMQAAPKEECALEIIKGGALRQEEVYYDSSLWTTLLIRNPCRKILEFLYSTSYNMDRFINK

COc1cc(/C=C/C(=O)CC(=O)/C=C/c2ccc(O)c(OC)c2)ccc1O [1 (Curcumin), Curcumin]
IC50 ([1]; read-out: IC50 (nM) Human 11β-HSD2): 14600 nM | IC50 ([1]; read-out: IC50 human 11β-HSD2): 14600 nM | IC50 [2]: 10.6 ± 7.17 µM | Mode of inhibition of rat 11β-HSD1 [3]: competitive inhibitor | Effect on lipid profiles / HFD-induced dyslipidemia ([4]; 200 mg/kg/day oral, HFD rats): effectively improved; also recorded: effectively prevented | Effect on serum APOA1 [4, 6]: significantly lowered | Effect on serum APOB [4, 6]: significantly lowered | Effect on serum LDL [4, 7]: reduced | Effect on serum glucose [4, 7]: reduced | Effect on serum total cholesterol [4, 7]: reduced | Effect on serum triglyceride (Tg) [4, 7]: reduced | Effect on serum LDL [4, 8]: significantly lowered | Effect on serum glucose [4, 8]: significantly lowered | Effect on serum total cholesterol [4, 8]: significantly lowered | Effect on serum triglyceride (Tg) [4, 8]: significantly lowered | Body weight (g) [4, 9]: 324.8±6.614^b g | Kidney(g) [4, 9]: 1.309±0.0756^a g | Liver(g) [4, 9]: 10.67±0.297^a g | Testis(g) [4, 9]: 2.664±0.1012^a g | Weight Gain(g) [4, 9]: 136.3±6.516^c g | Effect on HFD-induced increase of body weight gain ([4]; two months of treatment): reduced | Effect on HFD-induced increase of liver weight ([4]; two months of treatment): reduced | Effect on kidney weight ([4]; two months of treatment): did not affect | Effect on testis weight ([4]; two months of treatment): did not affect | Adverse effects during treatment ([4]; two-month treatment, 200 mg/kg/day): no adverse effects | Time to peak level after oral administration [5]: ≤ 1 h
